Experimental data: US5230998A, “Method for the prescreening of drugs targeted to the V3 hypervariable loop of the HIV-1 envelope glycoprotein gp 120” (priority 1991, dated 1993)
In brackets after ≈: the same amount, converted by molar mass.

Key:
[1] = target: T1, HIV-1 IIIB glycoprotein gp120 V3 hypervariable loop (Human immunodeficiency virus type 1 BH10, UniProt P03375); assay: Inhibition of the reaction between HIV-1 IIIB gp120 and three distinct antibodies reacting with the V3 hypervariable loop (FIGS. 8-11); format: binding; conditions: 60 μg/ml, metal complexes versus uncomplexed
T1 construct: b180 also mentions the V3 loop peptide
Procedure: (§1) FIG. 8 is a bar graph depicting the inhibitory effect of chlorine6 (60 μg/ml) and metal chelates thereof on the reaction between HIV-1 IIIB glycoprotein gp120 and three distinct antibodies reacting with the V3 hypervariable loop of this glycoprotein. The antisera used were rabbit antiserum to a synthetic peptide corresponding to the V3 hypervariable loop of HIV-1 clone BH10, serum of a chimpanzee immunized with V3 hypervariable loop peptides of distinct HIV-1 isolates and monoclonal antibodies (McAb NEA 9305) raised against residues (315-329) of the V3 hypervariable loop of HIV-1 BH10 (Neurath et al (1990), Molec. Immunol., 27, 539-549).
FIG. 9 is a bar graph depicting the inhibitory effect of deuteroporphyrin IX,2-vinyl,4-hydroxymethyl (60 μg/ml) and metal chelates thereof on the reaction between HIV-1 IIIB glycoprotein gp120 and three distinct antibodies reacting with the V3 hypervarible loop of this glycoprotein. The antisera used were rabbit antiserum to a synthetic peptide corresponding to the V3 hypervariable loop of HIV-1 clone BH10, serum of a chimpanzee immunized with V3 hypervariable loop peptides of distinct HIV-1 isolates and monoclonal antibodies (McAb NEA 9305) raised against a synthetic peptide corresponding to residues (315-329) of the V3 hypervariable loop of HIV-1 BH10 (Neurath et al (1990), Molec. Immunol 27, 539-549).
as §1, with “FIG. 10” for “FIG. 8”, “of meso-tetra (4-carboxyphenyl)porphine” for “of chlorine6”, “against a synthetic peptide corresponding to” for “against”, “HIV-1 BH10.” for “HIV-1 BH10”
as §1, with “FIG. 11” for “FIG. 8”, “of uroporphyrin III” for “of chlorine6”, “against a synthetic peptide corresponding to” for “against”, “et al,” for “et al”, “Molec. lmmunol.,” for “Molec. Immunol.,”, “27, 539-549)” for “27, 539-549).”
Monoclonal antibodies (McAbs) recognizing the V3 hypervariable loop of HIV-1 BH 10 (McAb 9305 from DuPont, Wilmington, Del.) and an antiserum from a chimpanzee immunized with a mixture of V3 hypervariable loop peptides from 21 distinct HIV1 isolates (Girard, M., Kieny, M-P., Pinter, A., Barre-Sinoussi, F., Nara, P., Kolbe, H., Kusumi, K., Chaput, A., Reinhart, T., Muchmore, E, Ronco, J., Kaczorek, M., Gomard, E, Gluckman, JC., Fultz, P. N. (1991), "Immunization of Chimpanzees Confers Protection Against Challenge with Human Immunodeficiency Virus", Proc. Natl. Acad. Sci. USA, 88, 542-546) were also used for studies on the inhibitory affect of ATA on the reaction between these antibodies and gp120, using ELISA tests. These tests were carried out similarly as RIA, except that sodium merthiolate (1 mg/ml) was added to the buffers instead of NaN3, and goat antimouse IgG antibodies (Boehringer Mannheim Biochemicals, Indianapolis, Ind.) and goat anti-human IgG antibodies (Sigma, St. Louis, Mo.), respectively, each linked to horseradish peroxidase were used as second antibodies at final dilutions of 1:1,000 in phosphate-buffered saline (PBS) containing 10% goat serum and 0.1% Tween 20. […]

[2] = target: T2, HIV-1 gp120 V3 hypervariable loop (Human immunodeficiency virus type 1 group M subtype B, UniProt P03375); assay: biochemical; format: binding; conditions: for Inhibitory activity: Table 1, reaction between HIV-1 gp120 and anti-V3 loop antibodies; for inhibition at 50 µg/mL: read-out: percentage of inhibition
T2 construct: Polystyrene plates coated with recombinant gp120 and gp160, respectively; purchased American Bio-Technologies, Inc., Cambridge, Mass; host or cells: baculovirus expression system
Procedure: Wells of 96 well polystyrene plates (Immulon 2, Dynatech Laboratories, Inc., Chantilly, Va.) were coated with synthetic peptides (200 μl; 20μg/ml in 0.1 M Tris-HCl, pH 8.8) overnight at 20° C. The peptides were from the sequence of HIV-1, clone BH 10 envelope glycoproteins gp120 and gp41 (Neurath, A. R., Strick, N., and Lee, E. Y. S. (1990), "B-cell Epitope Mapping of Human Immunodeficiency virus (HIV-1) Envelope Glycoprotein with Long (19 to 36-residue) Synthetic Peptides", J. Gen. Virol., 71., 85-95) and from V3 hypervariable loops of 21 distinct HIV-1 isolates (clones) Neurath, A. R., and Strick, N., (1990), "Confronting the Hypervariability of an Immunodominant Epitope Eliciting Virus Neutralizing Antibodies from the Envelope Glycoprotein of the Human Immunodeficiency Virus Type 1 (HIV-1)", Molec. Immunol., 27, 539-549. The latter peptides corresponded to full-length V3 loops generated by disulfide bonds between N- and C- terminal cysteine residues. After washing with 0.14 M NaCl, 0.01 M Tris, 0.02% NaN3 (TS), the wells were postcoated with a mixture of bovine serum albumin (BSA) and gelatine (10 and 2.5 mg/ml, respectively) in TS. BSA was omitted from the postcoating solution for RIA tests in which antibodies to ATA were used. Polystyrene plates coated with recombinant gp120 and gp160, respectively, (500 ng/well; from American Bio-Technologies, Inc., Cambridge, Mass. and MicroGeneSys, Inc., West Haven, Conn., respectively) were also used for RIA and ELISA tests.
To define sites on gp120/gp41 reacting with ATA, the inhibitory effect of this compound was studied by RIA tests using gp120- and gp160-coated wells, respectively, and antisera (final dilutions 1:150) against synthetic peptides from the entire sequence of gp120/gp41 of HIV-1 BH 10. The preparation and biological properties of these antisera were described elsewhere (Neurath et al., (1990), J. Gen. Virol., 71, 85-95). Each of the antisera was diluted in a mixture of fetal bovine serum and goat serum (9:1) containing 0.1% Tween 20, adjusted to pH 8. ATA (final concentration 50 μg/ml) was added in one set of assays, but was omitted from a parallel set. After incubation overnight at 25° C., the plates were washed with TS. Attached rabbit IgG was detected using ^125 I-labeled anti-rabbit IgG, as described before (Neurath et al., 1990, J. Gen. Virol., 71, 85-95). Similarly, the inhibitory effect of ATA on the reaction of peptides derived from gp120/gp41 and of peptides derived from V3 hypervariable loops from gp120 of distinct HIV-1 isolates with the respective homologous anti-peptide antisera was studied. In the latter case, antisera were diluted 1:1,000 for the assays.
The inhibitory effect of ATA and of other compounds on the reaction between antibodies with predetermined specificity and gp120 (or synthetic peptides derived from it) was determined from the formula: [formula] An analogous formula was used to calculate the percentage of inhibition from optical density readings resulting from ELISA tests.
Chemicals other than ATA were screened for inhibitory activity essentially as described above. […] Chemicals with inhibitory activity established by the respective immunoassays were screened further for antiviral activity.
Commercially available ATA is a mixture of monomers and polymers of distinct molecular masses (Gonzalez et al., (1979) Biochem. Biophys. Acta, 562, 534-545); Cushman et al., (1991), J. Chem., 34, 329-337). The monomers [molecular mass (M.W.)=422.4 daltons] were separated from the polymers. ATA (20 mg/ml in the form of free acid neutralized with 0.4 M NaOH) was dialyzed against H2 O in a dialysis membrane with a molecular mass cutoff of 500 daltons.

HIV-1 = assay: Antiviral activity: inhibition of P24 production in MT-2 cells; format: cell-based, HIV-1 IIIB; set-up: inhibition: dose or concentration left out as unconfirmed; conditions: Human immunodeficiency virus 1, MT2, Table 1; for EC50: read-out: EC50 (concentration at which the production of P24 was reduced to 50% of that detected in control cultures); for inhibition: read-out: percentage of inhibition of P24 nucleoprotein production
Procedure: All chemicals were tested at serial two-fold dilutions (1.25-80 μg/ml, prepared from a stock solution containing 10 mg/ml in dimethylsulfoxide). The chemicals were obtained from Aldrich, Milwaukee, Wis. or were synthesized. Their inhibitory activity was determined by two distinct methods, based on inhibition of synthesis of core protein P24 and on protection by the chemicals of cells against the cytopathic effect of HIV-1 (colorimetric method) respectively.
The chemicals were serially diluted in RPMI 1640 medium without phenol red (GIBCO, Grand Island, N.Y.) containing 10% fetal calf serum (FCS). Aliquots of the diluted solutions were added to wells of 96 well plates and mixed with an equal volume of diluted HIV-1 [multiplicity of infection (MOI) =0.0045]. After incubation for 1 hour at 37° C., 25 μl of polybrene (1 μg/ml) treated MT-2 cells (Harada, S., Koyanagi, Y., Yamamoto, N., (1985), "Infection of HTLV-III/LAV in HTLV-I-carrying Cells MT-2 and MT-4 and Application in a Plaque Assay", Science, 229, 563-566), (5,000 cells/well) were added. The mixture was incubated for 1 hour at 37° C. and the volume was adjusted with RPMI 1640 medium with 10% FCS to 200 μl. On the fourth day after incubation at 37° C., 100 μl of culture supernatants were collected from each well and equal volumes of fresh medium were added to the wells. The supernatants were assayed for P24 using a kit from Coulter Immunology (Hialeah, Fla.). On the sixth day, an indicator XTT tetrazolium dye (1 mg/ml; 50 μl/well; PolySciences, Inc., Warrington, Penna.) was added to the cells. After 4 hours, intracellular formazan was determined colorimetrically at 450 nm.
^c Chemicals with inhibitory activity in ELISA (RIA) tests were teste
^d EC50 = concentration at which the production of P24 was […]

| SMILES | inhibitory activity on the interaction between the V3 hypervariable loop of HIV-1-IIIB and antisera [1] | Inhibitory activity [2] | inhibition at 50 µg/mL [2] [%] | EC50 (HIV-1) [mg/L] | inhibition (HIV-1) [%] |
| --- | --- | --- | --- | --- | --- |
| O=C(O)c1ccc(-c2c3nc(c(-c4ccc(C(=O)O)cc4)c4ccc([n-]4)c(-c4ccc(C(=O)O)cc4)c4nc(c(-c5ccc(C(=O)O)cc5)c5ccc2[n-]5)C=C4)C=C3)cc1.[Co+2] | drastically reduced inhibitory activity |  |  |  |  |
| O=C(O)c1ccc(-c2c3nc(c(-c4ccc(C(=O)O)cc4)c4ccc([n-]4)c(-c4ccc(C(=O)O)cc4)c4nc(c(-c5ccc(C(=O)O)cc5)c5ccc2[n-]5)C=C4)C=C3)cc1.[Cr+2] | drastically reduced inhibitory activity |  |  |  |  |
| O=C(O)c1ccc(-c2c3nc(c(-c4ccc(C(=O)O)cc4)c4ccc([n-]4)c(-c4ccc(C(=O)O)cc4)c4nc(c(-c5ccc(C(=O)O)cc5)c5ccc2[n-]5)C=C4)C=C3)cc1.[Cu+2] | drastically reduced inhibitory activity |  |  |  |  |
| C=Cc1c(C)c2cc3nc(cc4[n-]c(cc5nc(cc1[n-]2)C(C)=C5CO)c(C)c4CCC(=O)O)C(CCC(=O)O)=C3C.[Fe+2] | substantially lower than that of the uncomplexed substance or of its Zn derivative |  |  |  |  |
| O=C(O)c1ccc(-c2c3nc(c(-c4ccc(C(=O)O)cc4)c4ccc([n-]4)c(-c4ccc(C(=O)O)cc4)c4nc(c(-c5ccc(C(=O)O)cc5)c5ccc2[n-]5)C=C4)C=C3)cc1.[Fe+2] | drastically reduced inhibitory activity |  |  |  |  |
| O=C(O)c1ccc(-c2c3nc(c(-c4ccc(C(=O)O)cc4)c4ccc([n-]4)c(-c4ccc(C(=O)O)cc4)c4nc(c(-c5ccc(C(=O)O)cc5)c5ccc2[n-]5)C=C4)C=C3)cc1.[Mn+2] | drastically reduced inhibitory activity |  |  |  |  |
| O=C(O)c1ccc(-c2c3nc(c(-c4ccc(C(=O)O)cc4)c4ccc([n-]4)c(-c4ccc(C(=O)O)cc4)c4nc(c(-c5ccc(C(=O)O)cc5)c5ccc2[n-]5)C=C4)C=C3)cc1.[Ni+2] | drastically reduced inhibitory activity |  |  |  |  |
| C1=Cc2nc1c(-c1ccncc1)c1ccc([nH]1)c(-c1ccncc1)c1nc(c(-c3ccncc3)c3ccc([nH]3)c2-c2ccncc2)C=C1 [compound 161] |  | + | 66.4 | > 80 | 0 |
| O=C(O)CCC1=C(CC(=O)O)c2cc3[nH]c(cc4nc(cc5[nH]c(cc1n2)c(CC(=O)O)c5CCC(=O)O)C(CC(=O)O)=C4CCC(=O)O)c(CC(=O)O)c3CCC(=O)O [compound 163] |  | + | 41.1 | 9.8 (≈ 11.8 µM) | 99 |
| O=C(O)CCC1=C(CC(=O)O)c2cc3[nH]c(cc4nc(cc5[nH]c(cc1n2)c(CCC(=O)O)c5CC(=O)O)C(CC(=O)O)=C4CCC(=O)O)c(CC(=O)O)c3CCC(=O)O [compound 164] |  | + | 45 | 2.3 (≈ 2.77 µM) | 100 |
